We go through seven compounds from ChEMBL document CHEMBL1151691, “Structure and biological activity of novel FN analogs as flowering inducers” (Bioorg Med Chem, 2008).

Calls of active or inactive are those of the source. The rule behind the calls is not given here.

This assay deals with Lemna aequinoctialis. Put plainly: Induction of flowering in Lemna paucicostata 151 after 10 days. Format: functional, organism-based.
Regarding `CC/C=C\C[C@@H]1[C@H](CC(=O)[C@@H](O)CCCCCCCC(=O)O)O[C@]2(O)CC13C(=CC2=O)N(C)C[C@@H]3O`, the outcome was Active.
As for `CCCCC[C@@H]1[C@H](CC(=O)C(O)CCCCCCCC(=O)O)O[C@]2(O)CC13C(=CC2=O)NC[C@@H]3O` (some centres not stated), the entry is “Active”; as for `CCCCC[C@@H]1[C@H](CC(=O)CCCCCCCCC(=O)O)O[C@]2(O)CC13C(=CC2=O)NC[C@@H]3O`, “inactive”.
As for `CC/C=C\C[C@@H]1[C@H](CC(=O)[C@H](O)CCCCCCCC(=O)O)O[C@]2(O)CC13C(=CC2=O)N(C)C[C@@H]3O`, the entry is “Active”; as for `CC/C=C\C[C@@H]1[C@H](CC(=O)[C@H](O)CCCCCCCC(=O)OC)O[C@]2(O)CC13C(=CC2=O)NC[C@@H]3O`, “Active”.
The entry for `CC/C=C\C[C@@H]1[C@H](CC(=O)CCCCCCCCC(=O)O)O[C@]2(O)CC13C(=CC2=O)NC[C@@H]3O` is “Active”.
With `CC/C=C\C[C@@H]1[C@H](CC(=O)[C@@H](O)CCCCCCCC(=O)OC)O[C@]2(O)CC13C(=CC2=O)NC[C@@H]3O`, the outcome was Active.
